The structures appear in SMILES notation. Like-named read-outs stand apart in the source and are kept apart here.

These results are taken from patent publication US8278345B2, “Inhibitors of glutaminyl cyclase” (Probiodrug AG, priority 2006, dated 2012).

The assay concerns the target hQC (Homo sapiens, UniProt Q16769). Nature of the assay: Inhibitor assay for glutaminyl cyclase activity (fluorometric, H-Gln-βNA / H-Gln-AMC). The assay is classed as biochemical. The protocol: All measurements were performed with a BioAssay Reader HTS-7000Plus for microplates (Perkin Elmer) at 30° C. QC activity was evaluated fluorometrically using H-Gln-βNA. The samples consisted of 0.2 mM fluorogenic substrate, 0.25 U pyroglutamyl aminopeptidase (Unizyme, Hørsholm, Denmark) in 0.2 M Tris/HCl, pH 8.0 containing 20 mM EDTA and an appropriately diluted aliquot of QC in a final volume of 250 μl. Excitation/emission wavelengths were 320/410 nm. The assay reactions were initiated by addition of glutaminyl cyclase. QC activity was determined from a standard curve of β-naphthylamine under assay conditions. One unit is defined as the amount of QC catalyzing the formation of 1 μmol pGlu-βNA from H-Gln-βNA per minute under the described conditions.
In a second fluorometric assay, QC activity was determined using H-Gln-AMC as substrate. Reactions were carried out at 30° C. utilizing the NOVOStar reader for microplates (BMG labtechnologies). The samples consisted of varying concentrations of the fluorogenic substrate, 0.1 U pyroglutamyl aminopeptidase (Qiagen) in 0.05 M Tris/HCl, pH 8.0 containing 5 mM EDTA and an appropriately diluted aliquot of QC in a final volume of 250 μl. Excitation/emission wavelengths were 380/460 nm. The assay reactions were initiated by addition of glutaminyl cyclase. QC activity was determined from a standard curve of 7-amino-4-methylcoumarin under assay conditions. The kinetic data were evaluated using GraFit sofware.
For inhibitor testing, the sample composition was the same as described above, except of the putative inhibitory compound added. For a rapid test of QC-inhibition, samples contained 4 mM of the respective inhibitor and a substrate concentration at 1 KM. For detailed investigations of the inhibition and determination of Ki-values, influence of the inhibitor on the auxiliary enzymes was investigated first. In every case, there was no influence on either enzyme detected, thus enabling the reliable determination of the QC inhibition. The inhibitory constant was evaluated by fitting the set of progress curves to the general equation for competitive inhibition using GraFit software.

[1] abbreviates: compound from preparative synthesis, purified, read-out: IC50 hQC.

Chain of hQC (Q16769 29-361): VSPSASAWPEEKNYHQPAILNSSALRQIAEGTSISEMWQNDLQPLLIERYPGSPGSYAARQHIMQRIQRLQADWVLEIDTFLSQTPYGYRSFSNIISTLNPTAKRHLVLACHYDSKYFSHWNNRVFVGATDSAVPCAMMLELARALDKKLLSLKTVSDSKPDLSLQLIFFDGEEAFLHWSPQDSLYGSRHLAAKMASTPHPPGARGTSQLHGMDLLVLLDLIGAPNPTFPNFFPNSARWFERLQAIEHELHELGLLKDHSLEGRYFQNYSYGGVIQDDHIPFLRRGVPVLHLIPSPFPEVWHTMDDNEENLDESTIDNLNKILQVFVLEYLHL

Turning to `CC1=C(O)C(=O)N(CCCn2ccnc2)C1c1ccco1` (stereo not shown) [Compound 47, 5-(Furan-2-yl-)3-hydroxy-1-(3-imidazol-1-yl-propyl)-4-methyl-1,5-dihydro-pyrrol-2-one], the half-maximal inhibitory concentration (IC50) (read-out: IC50) came to 400 nM.
`O=C1C(O)=C(c2c[nH]c3ccccc23)C(c2c[nH]c3ccccc23)N1CCCn1ccnc1` (stereo not shown) [Compound 132, 3-Hydroxy-1-(3-imidazol-1-yl-propyl)-4,5-bis-(1H-indol-3-yl)-1,5-dihydro-pyrrol-2-one]: the half-inhibitory concentration (IC50) (read-out: IC50) worked out at 400 nM.
Still for that read-out and setting: for `CC(C)(C)C(=O)C1=C(O)C(=O)N(c2ccc3[nH]cnc3c2)C1c1ccco1` (stereo not shown) [Compound 419, 1-(1H-Benzoimidazol-5-yl)-4-(2,2-dimethyl-propionyl)-5-furan-2-yl-3-hydroxy-1,5-dihydro-pyrrol-2-one] the value was 4090 nM; for `CCC1=C(O)C(=O)N(c2ccc3[nH]cnc3c2)C1c1c(F)c(F)cc(F)c1F` (stereo not shown) [Compound 400, 1-(1H-Benzoimidazol-5-yl)-4-ethyl-3-hydroxy-5-(2,3,5,6-tetrafluoro-phenyl)-1,5-dihydro-pyrrol-2-one], 6970 nM.
Turning to `O=C1C(O)=C(c2c[nH]c3ccccc23)C(c2ccco2)N1CCCn1ccnc1` (stereo not shown) [Compound 140, 5-Furan-2-yl-3-hydroxy-1-(3-imidazol-1-yl-propyl)-4-(1H-indol-3-yl)-1,5-dihydro-pyrrol-2-one], the IC50 (read-out: IC50) is 400 nM.
On the same count and under the same terms, the result for `CC1=C(O)C(=O)N(CCCn2ccnc2)C1c1ccc(C)cc1` (stereo not shown) [Compound 21, 3-Hydroxy-1-(3-imidazol-1-yl-propyl)-4-methyl-5-p-tolyl-1,5-dihydro-pyrrol-2-one] reads 2200 nM.
Turning to `CC(=O)C1=C(O)C(=O)N(c2ccc3[nH]cnc3c2)C1c1ccc(O)c(Br)c1` (stereo not shown) [Compound 333, 4-Acetyl-1-(1H-benzoimidazol-5-yl)-5-(3-bromo-4-hydroxy-phenyl)-3-hydroxy-1,5-dihydro-pyrrol-2-one], the IC50 (read-out: IC50) was determined as 760 nM.
In the case of `CCCCCC1=C(O)C(=O)N(c2ccc3[nH]cnc3c2)C1c1ccco1` (stereo not shown) [Compound 456, 1-(1H-Benzoimidazol-5-yl)-5-furan-2-yl-3-hydroxy-4-pentyl-1,5-dihydro-pyrrol-2-one], the half-inhibitory concentration (IC50) (read-out: IC50) turned out to be 4630 nM.
For the compound `O=C1C(O)=C(c2ccccc2)C(C2=CCCCC2)N1CCCn1ccnc1` (stereo not shown) [Compound 94, 5-Cyclohex-1-enyl-3-hydroxy-1-(3-imidazol-1-yl-propyl)-4-phenyl-1,5-dihydro-pyrrol-2-one], under “read-out: IC50”, the IC50 was found to be 4900 nM.
Same read-out and setting: for `O=C(C1=C(O)C(=O)N(c2ccc3[nH]cnc3c2)C1c1cc[nH]n1)C1CCCCC1` (stereo not shown) [Compound 379, 1-(1H-Benzoimidazol-5-yl)-4-cyclohexanecarbonyl-3-hydroxy-5-(1H-pyrazol-3-yl)-1,5-dihydro-pyrrol-2-one] the value was 5260 nM; for `CCCCCC1=C(O)C(=O)N(CCCn2ccnc2)C1c1ccc(CO)o1` (stereo not shown) [Compound 198, 3-Hydroxy-5-(5-hydroxymethyl-furan-2-yl)-1-(3-imidazol-1-yl-propyl)-4-pentyl-1,5-dihydro-pyrrol-2-one], 40 nM.
Consider `CCC1C(c2ccccc2)=C(O)C(=O)N1CCCn1ccnc1` (stereo not shown) [Compound 108, 5-Ethyl-3-hydroxy-1-(3-imidazol-1-yl-propyl)-4-phenyl-1,5-dihydro-pyrrol-2-one], for which the half-inhibitory concentration (IC50) (read-out: IC50) was 400 nM.
In the case of `CC(C)C1=C(O)C(=O)N(CCCn2ccnc2)C1c1ccccn1` (stereo not shown) [Compound 69, 3-Hydroxy-1-(3-imidazol-1-yl-propyl)-4-isopropyl-5-pyridin-2-yl-1,5-dihydro-pyrrol-2-one], the IC50 (read-out: IC50) was determined as 4900 nM.
On the same count and under the same terms, the result for `CC(=O)C1=C(O)C(=O)N(c2ccc3[nH]cnc3c2)C1C1CC=CCC1` (stereo not shown) [Compound 375, 4-Acetyl-1-(1H-benzoimidazol-5-yl)-5-cyclohex-3-enyl-3-hydroxy-1,5-dihydro-pyrrol-2-one] reads 9580 nM; that for `Cc1cc(C2C(C(C)C)=C(O)C(=O)N2c2ccc3[nH]cnc3c2)oc1C` (stereo not shown) [Compound 388, 1-(1H-Benzoimidazol-5-yl)-5-(4,5-dimethyl-furan-2-yl)-3-hydroxy-4-isopropyl-1,5-dihydro-pyrrol-2-one], 3190 nM.
Regarding `CCCCCC1=C(O)C(=O)N(CCCn2ccnc2)C1c1cccc(Cl)c1` (stereo not shown) [Compound 216, 5-(3-Chloro-phenyl)-3-hydroxy-1-(3-imidazol-1-yl-propyl)-4-pentyl-1,5-dihydro-pyrrol-2-one], the IC50 by setting is: under setting [1], 236 nM; (read-out: IC50) 40 nM.
Turning to `CC(=O)C1=C(O)C(=O)N(c2ccc3[nH]cnc3c2)C1c1cccc(C)c1` (stereo not shown) [Compound 283, 4-Acetyl-1-(1H-benzoimidazol-5-yl)-3-hydroxy-5-m-tolyl-1,5-dihydro-pyrrol-2-one], for the setting “read-out: IC50”, the half-maximal inhibitory concentration (IC50) turned out to be 400 nM.
Regarding `CC1=C(O)C(=O)N(c2ccc3[nH]cnc3c2)C1c1ccc(C(=O)O)o1` (stereo not shown) [Compound 399, 5-[1-(1H-Benzoimidazol-5-yl)-4-hydroxy-3-methyl-5-oxo-2,5-dihydro-1H-pyrrol-2-yl]-furan-2-carboxylic acid], for the setting “read-out: IC50”, the IC50 stood at 1390 nM.
Same read-out and setting: the result for `CCCC1C(c2c[nH]c3ccccc23)=C(O)C(=O)N1CCCn1ccnc1` (stereo not shown) [Compound 115, 3-Hydroxy-1-(3-imidazol-1-yl-propyl)-4-(1H-indol-3-yl)-5-propyl-1,5-dihydro-pyrrol-2-one] reads 400 nM; that for `Cc1ccc(C2C(C(=O)C3CCCCC3)=C(O)C(=O)N2c2ccc3[nH]cnc3c2)o1` (stereo not shown) [Compound 273, 1-(1H-Benzoimidazol-5-yl)-4-cyclohexanecarbonyl-3-hydroxy-5-(5-methyl-furan-2-yl)-1,5-dihydro-pyrrol-2-one], 580 nM; that for `Cc1[nH]c2ccccc2c1C1C(C(=O)C2CC2)=C(O)C(=O)N1c1ccc2[nH]cnc2c1` (stereo not shown) [Compound 298, 1-(1H-Benzoimidazol-5-yl)-4-cyclopropanecarbonyl-3-hydroxy-5-(2-methyl-1H-indol-3-yl)-1,5-dihydro-pyrrol-2-one], 7870 nM.
On to `CCCCCC1=C(O)C(=O)N(CCCn2ccnc2)C1C1CCC=CO1` (stereo not shown) [Compound 200, 5-(3,4-Dihydro-2H-pyran-2-yl)-3-hydroxy-1-(3-imidazol-1-yl-propyl)-4-pentyl-1,5-dihydro-pyrrol-2-one], for which the concentration for half-maximal inhibition (IC50) (read-out: IC50) is 40 nM.
For `CCCCCC1=C(O)C(=O)N(CCCn2ccnc2)C1Cc1ccccc1` (stereo not shown) [Compound 206, 5-Benzyl-3-hydroxy-1-(3-imidazol-1-yl-propyl)-4-pentyl-1,5-dihydro-pyrrol-2-one], where the note is “read-out: IC50”, the IC50 was determined as 400 nM.
Regarding `O=C1C(O)=C(c2ccccc2)C(C2CCC=CO2)N1CCCn1ccnc1` (stereo not shown) [Compound 93, 5-(3,4-Dihydro-2H-pyran-2-yl)-3-hydroxy-1-(3-imidazol-1-yl-propyl)-4-phenyl-1,5-dihydro-pyrrol-2-one], the IC50 was 1670 nM under setting [1] and 40 nM (read-out: IC50).
For the compound `CC(=O)C1=C(O)C(=O)N(c2ccc3[nH]cnc3c2)C1C1CC1` (stereo not shown) [Compound 266, 4-Acetyl-1-(1H-benzoimidazol-5-yl)-5-cyclopropyl-3-hydroxy-1,5-dihydro-pyrrol-2-one], for the setting “read-out: IC50”, the half-maximal inhibitory concentration (IC50) was 2290 nM.
For `O=C(O)c1ccc(C2C(c3c[nH]c4ccccc34)=C(O)C(=O)N2c2ccc3[nH]cnc3c2)o1` (stereo not shown) [Compound 451, 5-[1-(1H-Benzoimidazol-5-yl)-4-hydroxy-3-(1H-indol-3-yl)-5-oxo-2,5-dihydro-1H-pyrrol-2-yl]-furan-2-carboxylic acid], for the setting “read-out: IC50”, the IC50 is 2560 nM.
Same read-out and setting: for `Cc1ccc2c(C3C(c4c[nH]c5ccccc45)=C(O)C(=O)N3c3ccc4[nH]cnc4c3)c[nH]c2c1` (stereo not shown) [Compound 320, 1-(1H-Benzoimidazol-5-yl)-3-hydroxy-4-(1H-indol-3-yl)-5-(6-methyl-1H-indol-3-yl)-1,5-dihydro-pyrrol-2-one] the value was 9490 nM; for `O=C1C(O)=C(c2ccc(O)cc2)C(c2ccc(O)cc2)N1CCCn1ccnc1` (stereo not shown) [Compound 181, 3-Hydroxy-4,5-bis-(4-hydroxy-phenyl)-1-(3-imidazol-1-yl-propyl)-1,5-dihydro-pyrrol-2-one], 40 nM; for `CC(=O)C1=C(O)C(=O)N(c2ccc3[nH]cnc3c2)C1c1ccco1` (stereo not shown) [Compound 366, 4-Acetyl-1-(1H-benzoimidazol-5-yl)-5-furan-2-yl-3-hydroxy-1,5-dihydro-pyrrol-2-one], 2380 nM.
Still for that read-out and setting: the result for `CCCCCC1=C(O)C(=O)N(CCCn2ccnc2)C1c1ccc(C)c(C)c1` (stereo not shown) [Compound 195, 5-(3,4-Dimethyl-phenyl)-3-hydroxy-1-(3-imidazol-1-yl-propyl)-4-pentyl-1,5-dihydro-pyrrol-2-one] reads 40 nM.
Same read-out and setting: for `CCCCCC1=C(O)C(=O)N(c2ccc3[nH]cnc3c2)C1c1ccccc1F` (stereo not shown) [Compound 325, 1-(1H-Benzoimidazol-5-yl)-5-(2-fluoro-phenyl)-3-hydroxy-4-pentyl-1,5-dihydro-pyrrol-2-one] the value was 940 nM; for `CC(=O)C1=C(O)C(=O)N(c2ccc3[nH]cnc3c2)C1c1cccc(Cl)c1` (stereo not shown) [Compound 301, 4-Acetyl-1-(1H-benzoimidazol-5-yl)-5-(3-chloro-phenyl)-3-hydroxy-1,5-dihydro-pyrrol-2-one], 130 nM.

A word on the IC50: it is the concentration that gives 50% inhibition.
